Assay results from US7301020B2, “Macrolide analogs and methods for identifying same” (priority 2003, dated 2007).

Experiments:
NBT-II cells = experiment: Effect of macrolides on NBT-II cells (live cell microscopy); type: cell-based, rat
Experimental: FIG. 7: Effect of KabC on NBT-II cells. NBT-II cells are imaged after 16 hours of drug treatment. KabC concentrations: (A), Control; (B), 10 nM; (C), 100 nM and (D), 1000 nM.
Cell Culture: Rat bladder NBT-II carcinoma cells and mouse NIH 3T3 fibroblast cells are maintained and treated with external drugs as described in Choidas et al (1998).
Live cell microscopy: A multi-model microscope workstation was used to image phase contrast and fluorescence images of living cells (Choidas et al, 1998). Cells are maintained at 37° in a Hepes based culture medium in a Bioptechs cell perfusion chamber (Choidas et al, 1998).

Prodan-G-actin [1] = target: T1, Prodan-G-actin (Oryctolagus cuniculus, UniProt P68135); experiment: Kinetic analysis of binding to Prodan-G-actin (stopped-flow and slow phase); design: F-actin is purified from rabbit skeletal muscle using a standard protocol; Prodan (Acrylodan) fluorophore, chemical label on the thiol of Cys374; from tissue; host or cells: rabbit skeletal muscle; species or system rabbit
Experimental: FIG. 3: Kinetic analyses of KabC binding of Prodan labeled G-actin. (A-B). Prodan-actin (0.1 μM) and KabC, loaded into separated syringes, were rapidly mixed within ˜1 msec dead-time. The concentrations of KabC were 0.0 μM (a), 1.0 μM (b), 1.5 μM (c), 2.0 μM (d) and 2.5 μM (data not shown), respectively. The decreases in emission intensity were well fitted with single exponential functions to determine the observed rate, kobs. The observed rates are plotted as a function of the [KabC] in panel (B).
Kinetic analysis of binding reactions. The kinetics of the KabC interaction with Prodan-actin is determined, using an Applied Photophysics SX.18MV Stopped-flow spectrometer, by following the decrease in the emission intensity of Prodan-actin at 25° C. Prodan was excited at 385 nm and emission was collected with a 470 nm (+/−5 nm) band-pass filter. In all cases the decrease in emission intensity was best fit with a single exponential function, which was then used to determine the observed rate, kobs. Kinetic constants of on rate (kon) and off rate (koff) were calculated according to the following equation: kobs=kon[KabC]+koff. The kinetics of the slower binding step observed in the interaction of KabC with Prodan-G-actin interaction is measured by measuring the ratio of fluorescence signals at 465 nm and 530 nm. The decay of this ratio is fit using a single exponential rate.

Prodan-G-actin [2] = target: T1, Prodan-G-actin; experiment: Competition-binding assay with GS1 and CapG on Prodan-G-actin; design: F-actin is purified from rabbit skeletal muscle using a standard protocol; from tissue; host or cells: actin from rabbit skeletal muscle; CapG and GS1 expressed in E. coli M15; species or system rabbit
Experimental: FIG. 4: (A) CapG: (a), Prodan-G-actin (100 nM), (b), Prodan-G-actin-CapG; (c), same as (b) in the presence of 0.2 μM KabC; (B); GS1: (a), Prodan-G-actin 100 nM; (b), Prodan-G-actin-GS1; (c), same as (b) in the presence of 0.2 μM KabC.
Characterization of actin binding proteins: The actin-binding properties of the ABPs used in this study are evaluated from changes in the fluorescence emission spectrum of Prodan-actin and actin polymerization assays as described by Marriott et al (1988).
Trisoxazolemacrolides specifically compete with GS1 for the (+)-end binding site on actin. Gelsolin, a monomeric 80 kD cytoskeleton protein composed of six domains interacts with actin filaments in a complex, Ca^2+-dependent manner (Janmey et al, 1985; Burtnick et al, 1997). Gelsolin exerts two major effects once bound to an actin filament: first it severs the filament and second it remains tightly bound to the severed (+)-end and serves to block, or cap, further growth. […] Structural analyses of G-actin complexes with GS1 (McLaughlin et al, 1993) and KabC show these unrelated molecules bind to G-actin through common contact sites that include a patch of hydrophobic residues on the surface between sub-domains 1 and 3 and within the cleft that forms between the interface of sub-domains 1 and 3 (McLaughlin et al, 1993;). GS1 binding to Prodan-G-actin shifts the average energy of the fluorescence emission to the red and is accompanied by a decrease in the quantum yield (FIG. 4A) but not to the extent seen in the KabC-G-actin complex (FIG. 2).
Trisoxazolemacrolides specifically compete with CapG for the (+)-end binding site on actin. CapG, a Ca^2+-dependent, (+)-end actin filament capping protein, is found at high levels in macrophage cells where it regulates membrane ruffling and cell protrusions associated with phagocytosis and motility (Botelho et. al., 2000). […] The Ca^2+-dependent binding of CapG to Prodan-G-actin is accompanied by a dramatic blue-shift in the emission spectrum and an increase in quantum yield (FIG. 4B, curve b). The difference in fluorescence emission spectra between free and CapG-bound Prodan-G-actin is used to quantify the parameters for this binding reaction. The G-actin-CapG complex exists as a 1:1 complex and has a dissociation constant of 100 nM (data not shown). […] This conclusion is consistent with a comparison of high-resolution structures of G-actin with GS1 and KabC and a preliminary analysis of a 2.8 Angstrom structure of a CapG mutant (Vorobiev et al, PDB database, 2002). […] However the emission properties of the CapG-Prodan-G-actin complex are unaffected by the binding of LatA, DNAse and thymosin β4 (Tβ4), which is consistent with some structural data showing that these sequestering molecules bind closer to the ATP pocket and DNAse binding loop (Kabsch et al, 1990).

Prodan-labeled G-actin = target: T2, Prodan-labeled G-actin (Oryctolagus cuniculus, UniProt P68135); experiment: Prodan-G-actin titration: binding stoichiometry and dissociation constant; design: species or system rabbit; conditions: Prodan-G-actin titration; read-out: dissociation constant of G-actin complex
T2 construct: F-actin is purified from rabbit skeletal muscle using a standard protocol; Prodan (Acrylodan) fluorophore, chemical label on the thiol of Cys374; from tissue; host or cells: rabbit skeletal muscle
Experimental: FIG. 2: (A), Stoichiometric binding of Prodan-labeled G-actin (1 μM) in G-buffer with KabC at final concentrations of in μm, a: 0.0; b: 0.1; c: 0.2; d: 0.3; e: 0.4; f: 0.5; g: 0.6; h: 0.7; i: 0.8; j: 0.9; k: 1.0; l: 1.1; m: 1.2; n: 1.5 (B), Plot of the integrated intensity in (A) against [KabC] yields a binding stoichiometry of 1:1.
Prodan-actin: Actin is labeled with the thiol probe, Acrylodan (Molecular Probes, Eugene, Oreg.) using a standard protocol (Marriott et al, 1988). Rabbit muscle G-actin is labeled with the thiol reactive, environmentally sensitive probe, Acrylodan, according to the inventor's earlier publication (Marriott et al, 1988). […]
Determination of the binding stoichiometry and dissociation constants for G-actin complexes with ABPs and macrolide drugs: The change in the quantum yield and/or emission energy of Prodan-actin is used to quantify the interaction of CapG and macrolides with G-actin. The stoichiometry of the CapG-G-actin and macrolide-G-actin complex is determined by titrating Prodan-G-actin at 1 μM with increasing amounts of CapG or the macrolide from 0.1^−10 μM. […] The equilibrium binding constant is determined by titrating a constant amount of Prodan labeled G-actin at 0.05˜0.1 μM in G- or F-buffer with incrementally increasing amounts of the macrolide or CapG over a range of 10 nM to 10 μM. […]

| Molecule | cytotoxic activity on NBT II epithelia cells (NBT-II cells) | effect of binding on emission properties of CapG-Prodan-G-actin complex (Prodan-G-actin [2]) | also measured |
| --- | --- | --- | --- |
| COC(CC1OC(=O)CC(O)C/C=C/C(=O)C(C)C(OC)c2coc(n2)-c2coc(n2)-c2coc(n2)/C=C/CCC1C)C(C)CCC(=O)C(C)C(C/C=C/N(C)C=O)OC (stereo not drawn) [Hal, halichondramide] | concentration dependent cytotoxic activity |  | binding steps in reaction with G-actin (Prodan-G-actin [1]): 1st and 2nd-binding steps are common |
| C/C1=C/C(=O)O[C@@H]2C[C@@H](CC[C@H](C)/C=C\C=C\CC1)O[C@@](O)([C@@H]1CSC(=O)N1)C2 [LatA] |  | unaffected |  |
| CO[C@H]1C[C@H](CC[C@H](C)[C@H](O)[C@H](C)[C@H]2OC(=O)/C(C)=C/C[C@H](O)C[C@@H]3C=CC[C@@H](C[C@H](OC)[C@@H](C)[C@@H](O)C[C@@H](O)[C@H](C)[C@@H]([C@@H](C)[C@@H](O)[C@@H](C)CC[C@H]4C[C@H](OC)C[C@H](C)O4)OC(=O)/C(C)=C/C[C@H](O)C[C@@H]4C=CC[C@@H](C[C@H](OC)[C@@H](C)[C@@H](O)C[C@@H](O)[C@@H]2C)O4)O3)O[C@@H](C)C1 [MisA, misakinolide A] | concentration dependent cytotoxic activity |  | binding site on actin by competition-binding assay (Prodan-G-actin [2]): bind to the same site on actin as KabC, CapG and GS1 |
| CO[C@H]1C[C@H](CC[C@H](C)[C@H](O)[C@H](C)[C@H]2OC(=O)/C=C/C(C)=C/C[C@H](O)C[C@@H]3C=CC[C@@H](C[C@H](OC)[C@@H](C)[C@@H](O)C[C@@H](O)[C@H](C)[C@@H]([C@@H](C)[C@@H](O)[C@@H](C)CC[C@H]4C[C@H](OC)C[C@H](C)O4)OC(=O)/C=C/C(C)=C/C[C@H](O)C[C@@H]4C=CC[C@@H](C[C@H](OC)[C@@H](C)[C@@H](O)C[C@@H](O)[C@@H]2C)O4)O3)O[C@@H](C)C1 [SwiA, Swinholide A] | concentration dependent cytotoxic activity |  | binding site on actin by competition-binding assay (Prodan-G-actin [2]): bind to the same site on actin as KabC, CapG and GS1 |
| DNAse |  | unaffected |  |
| Ulapualide A [UlaA] | concentration dependent cytotoxic activity |  | binding steps in reaction with G-actin (Prodan-G-actin [1]): 1st and 2nd-binding steps are common |
| thymosin β4: actin monomer sequestering protein |  | unaffected |  |
| CapG: Ca^2+-dependent, (+)-end actin filament capping protein, cloned from mouse brain cDNA library (protein, UniProt P24452 1-352, looked up) Macrophage-capping protein: MYTPIPQSGSPFPASVQDPGLHIWRVEKLKPVPIARESHGIFFSGDSYLVLHNGPEEASHLHLWIGQQSSRDEQGACAVLAVHLNTLLGERPVQHREVQGNESDLFMSYFPRGLKYYREGGVESAFHKTTSGARGAAIRKLYQVKGKKNIRATERPLSWDSFNTGDCFILDLGQNIFAWCGGKSNILERNKARDLALAIRDSERQGKAQVEIITDGEEPAEMIQVLGPKPALKEGNPEEDITADQTRPNAQAAALYKVSDATGQMNLTKVADSSPFASELLIPDDCFVLDNGLCAQIYIWKGRKANEKERQAALQVADGFISRMRYSPNTQVEILPQGRESPIFKQFFKNWK |  |  | Kd (Prodan-labeled G-actin): 100 nM |
